From article PMC5638327, “Comparison of bioavailability and antiplatelet action of ticagrelor in patients with ST-elevation myocardial infarction and non-ST-elevation myocardial infarction: A prospective, observational, single-centre study” (PLoS ONE, 2017) come the findings set out here.

Each structure is given as a SMILES string. Where two headings read alike, the source gives them in different places.

Series [1] is described as follows: Pharmacokinetic assessment: plasma concentrations by liquid chromatography tandem mass spectrometry after ticagrelor loading dose. The format is in vivo, human (patients with myocardial infarction). The following applies: for Tmax / AUC(0-t) / Cmax: both sexes, human, plasma, 180 mg. Here is the method:
(§1) Consecutive STEMI and NSTEMI patients admitted to the study site (Cardiology Department, Dr. A. Jurasz University Hospital, Bydgoszcz, Poland) were screened for eligibility. After admission to the study centre, confirmation of the initial diagnosis of STEMI or NSTEMI, and provision of a written informed consent to participate in the trial, all study participants received an oral 300 mg LD of plain aspirin (Polpharma SA, Starogard Gdański, Poland) and 180 mg LD ticagrelor in integral tablets with 250 mL tap water. Subsequently, within 15 minutes of ticagrelor LD, all patients underwent coronary angiography followed by PCI as required. During the periprocedural period, all study participants received unfractionated heparin in body weight adjusted dose according to the European Society of Cardiology (ESC) recommendations. Plasma concentrations of ticagrelor and its active metabolite, as well as their antiplatelet effect, were evaluated according to the sampling schedule employed at our centre in previous PK/PD study (pre-treatment, 0.5 h, 1 h, 2 h, 3 h, 4 h, 6 h and 12 h post ticagrelor LD).
(§2) Blood samples for PK/PD evaluation were obtained from an 18-gauge cannula inserted into one of the forearm veins. The first 5 mL blood was discarded to avoid spontaneous platelet activation. In each patient specimens were collected at the eight pre-defined time. Detailed description of blood sample processing has been published in the study protocol (S1 File).
Ticagrelor and AR-C124910XX plasma concentrations were analyzed with liquid chromatography coupled with tandem mass spectrometry, using a validated method. Lower limits of quantification were 4.69 ng/mL for both ticagrelor and AR-C124910XX.
Statistical calculations were performed using the Statistica 12.5 package (StatSoft, Tulsa, OK, USA). Pharmacokinetic calculations and plots were made using the Matlab R2014 software (Mathworks, Natick, MA, USA); trapezoidal rule was applied to calculate AUC. Data for pharmacokinetic features of ticagrelor and AR-C124910XX, pharmacodynamic outcome variables, creatinine, glomerular filtration rate and left ventricle ejection fraction were presented as medians and interquartile ranges. Data for heart rate, systolic and diastolic blood pressure, age and body mass index were presented as means with standard deviations. […] Continuous variables were compared between both study groups with the Student’s t-test and Mann-Whitney U test, depending on the presence or absence of the normal distribution (as assessed by the Shapiro-Wilk test). Comparisons between categorical variables were performed by the chi-square test, with Yates's correction if necessary, or using Fisher's exact test. […]
Blood samples for pharmacokinetic and phar- infarction; PCI, percutaneous coronary intervention; PD, macodynamic assessment will be drawn at eight prede- pharmacodynamics; PK, pharmacokinetics; STEMI, ﬁned time points according to the blood sampling ST-elevation myocardial infarction. schedule already used at our site in a previous study
( pretreatment baseline, 30 min, 1, 2, 3, 4, 6 andsamples will be stored at temperature below −60°C until 12 hours post-ticagrelor LD— as shown in ﬁgure 1). 31 analysed.
All enrolled patients with ﬁnally unconﬁrmed initial Venous blood for the assessment of pharmacodynam-diagnosis of AMI will be excluded from the primar y ana- ics with the vasodilator-stimulated phosphoprotein lysis. Patients qualiﬁed for urgent coronar y arter y bypass (VASP) assay and multiple electrode aggregometr y surgery within the blood sampling period also will not (MEA) will be collected into trisodium citrate and be included in the analysis. All study participants not hirudin vacuum test tubes, respectively. The ﬁrst 3–5mL receiving PCI will be reported. of blood will be discarded to avoid spontaneous platelet Study population activation. The pharmacodynamic analysis will be per- […]

Another series relates to platelet reactivity. Description: Platelet reactivity by Multiplate (multiple electrode aggregometry) after ticagrelor loading dose. The format is in vivo, human (patients with myocardial infarction). As to conditions: median [interquartile range]; for time to achieve platelet inhibition below the cut-off value for HPR (Multiplate): HPR = AUC >46 U. How it is done:
as §1, §2
Platelet reactivity was assessed using VASP and Multiplate. The VASP assay (Biocytex, Inc., Marseille, France) was used in all study participants, while Multiplate (Roche Diagnostics International Ltd., Rotkreuz, Switzerland) was used in all except in those treated with glycoprotein (GP) IIb/IIIa receptor inhibitors. Pharmacodynamic evaluation was performed according to the manufacturers' instructions. HPR was defined as platelet reactivity index >50% for the VASP assay and AUC >46 units (U) for Multiplate. […]
Table 1 Inclusion and exclusion criteria of the PINPOINT study
Inclusion criteria Exclusion criteria
▸ Provision of informed consent prior to any ▸ Treatment with ticlopidine, clopidogrel, prasugrel or ticagrelor within study-specific procedure 14 days before the study enrolment
▸ Diagnosis of STEMI or NSTEMI ▸ Hypersensitivity to ticagrelor
▸ Men or non-pregnant women ▸ Current treatment with oral anticoagulant or chronic therapy with low-molecular-weight heparin
▸ Provision of informed consent for angiography ▸ Active bleeding […]
▸ History of intracranial haemorrhage
▸ Fibrinolytic treatment during the index event
▸ Recent gastrointestinal bleeding (within 30 days)
▸ History of coagulation disorders
▸ History of moderate or severe hepatic impairment
▸ History of major surgery or severe trauma (within 3 months)
▸ Second or third degree atrioventricular block during screening for […]
▸ Patient requiring dialysis
▸ Manifest infection or inflammatory state
▸ Killip class III or IV during screening for eligibility
▸ Current therapy with strong CYP3A inhibitors or strong CYP3A […]
NSTEMI, non-ST-elevation myocardial infarction; PCI, percutaneous coronary intervention; STEMI, ST-elevation myocardial infarction. […]
MEA (Roche Diagnostics International, Rotkreuz, staff and the attending physician. The type of implanted Switzerland) will be used at all predeﬁned time points stent and choice of the access site for coronary invasive ( ﬁgure 1) for all study participants with the exception of procedure (radial or femoral ) will be at the discretion of those treated with glycoprotein IIb/IIIa (GP IIb/IIIa) the operator. During the periprocedural period, all study receptor inhibitors as this therapy may affect the results participants will receive unfractionated heparin in body of platelet reactivity assessment per formed with MEA weight adjusted dose according to the ESC recommenda-( ﬁgure 2). Pharmacodynamic assessment with VASP and tions.2336Administration of GP IIb/IIIa receptor in- […]

[2] abbreviates: po, NSTEMI patients, oral 180 mg ticagrelor LD, 0 to 12 hours, median [interquartile range].
Where [3] appears, read: po, STEMI patients, oral 180 mg ticagrelor LD, 0 to 12 hours, median [interquartile range].

Broadly, the Tmax is the time from dosing to the highest level. For orientation: Cmax means the maximum level reached in the sampled fluid or tissue. On to `CCCSc1nc(N[C@@H]2C[C@H]2c2ccc(F)c(F)c2)c2nnn([C@@H]3C[C@H](OCCO)[C@@H](O)[C@H]3O)c2n1` [ticagrelor], for which the Tmax is 4 h in series [1] (oral, NSTEMI opioid-treated (morphine) patients (second value of the pair), post hoc analysis, median [interquartile range]); 1 h in series [1] (oral, NSTEMI patients without morphine (first value of the pair), post hoc analysis, median [interquartile range]); 2.5 h in series [1] (setting [2]); 4 h in series [1] (setting [3]). For the same compound, the AUC(0-t) in series [1] (oral, internal pilot study, first 30 patients with STEMI, mean and SD, read-out: AUC(0–6)) stood at 2380 ± 2280 ng·h/mL; in series [1] (po, NSTEMI patients (n = 24), oral 180 mg ticagrelor LD, median [interquartile range], read-out: AUC(0–6)) it was 3990 ng·h/mL; in series [1] (po, NSTEMI patients, oral 180 mg ticagrelor LD, median [interquartile range], read-out: AUC(0–12)), 8600 ng·h/mL; in series [1] (po, STEMI patients (n = 49), oral 180 mg ticagrelor LD, median [interquartile range], read-out: AUC(0–6)), 2490 ng·h/mL; in series [1] (po, STEMI patients, oral 180 mg ticagrelor LD, median [interquartile range], read-out: AUC(0–12)), 5680 ng·h/mL. Besides, the Cmax was 1160 ng/mL in series [1] (setting [2]) and 1110 ng/mL in series [1] (setting [3]). Further, the “lower AUC(0–6) in STEMI than in NSTEMI patients” value in series [1] (first 6 h after 180 mg ticagrelor LD) stood at 38%. The “Platelet reactivity (Multiplate)” value was 49.0 [21.0–86.0] U in the series on platelet reactivity (NSTEMI, 0.5 h after 180 mg ticagrelor LD); 18.0 [10.0–31.0] U in the series on platelet reactivity (NSTEMI, 2 h after 180 mg ticagrelor LD); 88.0 [51.5–103.5] U with platelet reactivity (STEMI, 0.5 h after 180 mg ticagrelor LD); 36.0 [22.0–52.5] U in the series on platelet reactivity (STEMI, 2 h after 180 mg ticagrelor LD). For the same compound, the “time to achieve platelet inhibition below the cut-off value for HPR (Multiplate)” value in the series on platelet reactivity (NSTEMI) was 0.5 [0.5–2.0] h; with platelet reactivity (STEMI), 2.0 [0.5–3.0] h.
